What was measured:
[1] = test system: SK-MEL-30 and SK-MEL-173 PDPK1-knockdown cells; assay: Cellular growth of siRNA PDPK1-knockdown cells in response to MEKi; format: cell-based, human; details: SK-MEL-30 and SK-MEL-173, 3 days, siPDPK1 vs siCtrl
Procedure: FIGS. 3A-3B: PDPK1 depletion by two individual sgRNAs in WM1361A (FIG. 3A) or WM1366 (FIG. 3B) cells were analyzed by immunoblot. FIGS. 3C-3D, Cell growth of WM1361A (FIG. 3C) or WM1366 (FIG. 3D) parental clones (Cas9) and PDPK1-depleted clones by two individual sgRNAs (KO1 and KO2) treated with vehicle (DMSO) or trametinib (Tram) was monitored by IncuCyte every 2 hours. Media were replaced twice with fresh drugs during culture. Data are represented as the mean±SEM of three biological independent experiments. p values were calculated with an unpaired two-tailed t test. n.s., not significant. FIGS. 3E-3F, Cellular growth in response to trametinib at the indicated doses for 5 days in WM1361A (FIG. 3E) or WM1366 (FIG. 3F) parental clone (iCas9) and PDPK1-depleted clones (KO1 and K02). Media were replaced once with drugs during culture. […] FIGS. 3G-3J, PDPK1 knockdown by ON-target control siRNAs and two individual siRNAs in SK-MEL-30 (FIG. 3G) or SK-MEL-173 cells (FIG. 3I) was analyzed by immunoblot. […]
FIG. 12A-12B: Cell growth of WM1361A (FIG. 12A) or WM1366 (FIG. 12B) parental clone (Cas9) and PDPK1-depleted clones (KO1 and K02) treated with vehicle (DMSO) or PD0325901 (PD) was monitored by IncuCyte every 2 hours. […] Data are represented as the mean±SEM of three biological independent experiment. p values were calculated with an unpaired two-tailed t test. n.s., not significant. […]

[2] = test system: WM1361A and WM1366 PDPK1-depleted clones; assay: Cell growth of PDPK1-depleted (sgRNA knockout) clones in response to MEKi; format: cell-based, human; details: for decrease of the half-maximum inhibitory concentration by PDPK1 depletion: WM1361A and WM1366, 5 days, PDPK1-depleted clones vs parental clone; for cell proliferation, MEKi combined with PDPK1 depletion: WM1361A and WM1366 KO1 and KO2 clones
Procedure: FIGS. 3A-3B: PDPK1 depletion by two individual sgRNAs in WM1361A (FIG. 3A) or WM1366 (FIG. 3B) cells were analyzed by immunoblot. FIGS. 3C-3D, Cell growth of WM1361A (FIG. 3C) or WM1366 (FIG. 3D) parental clones (Cas9) and PDPK1-depleted clones by two individual sgRNAs (KO1 and KO2) treated with vehicle (DMSO) or trametinib (Tram) was monitored by IncuCyte every 2 hours. Media were replaced twice with fresh drugs during culture. Data are represented as the mean±SEM of three biological independent experiments. p values were calculated with an unpaired two-tailed t test. n.s., not significant. FIGS. 3E-3F, Cellular growth in response to trametinib at the indicated doses for 5 days in WM1361A (FIG. 3E) or WM1366 (FIG. 3F) parental clone (iCas9) and PDPK1-depleted clones (KO1 and K02). Media were replaced once with drugs during culture. Data are represented as dots of three biological independent experiments. FIGS. 3G-3J, PDPK1 knockdown by ON-target control siRNAs and two individual siRNAs in SK-MEL-30 (FIG. 3G) or SK-MEL-173 cells (FIG. 3I) was analyzed by immunoblot. Cellular growth in response to trametinib at the indicated doses for 3 days in SK-MEL-30 (FIG. 3H) or SK-MEL-173 (FIG. 3J) control cells (siCtrl) and PDPK1-knockdown cells (siPDPK1s). Data are represented as dots of at least three biological independent experiments.
FIG. 12A-12B: Cell growth of WM1361A (FIG. 12A) or WM1366 (FIG. 12B) parental clone (Cas9) and PDPK1-depleted clones (KO1 and K02) treated with vehicle (DMSO) or PD0325901 (PD) was monitored by IncuCyte every 2 hours. Media were replaced twice with drugs during culture. Data are represented as the mean±SEM of three biological independent experiment. p values were calculated with an unpaired two-tailed t test. n.s., not significant. FIGS. 12C-12D, Cellular growth in response to PD0325901 at the indicated doses for 5 days in WM1361A (FIG. 12C) or WM1366 (FIG. 12D) parental clone (iCas9) and PDPK1-depleted clones (KO1 and K02). Media were replaced once with drugs during culture. Data are represented as dots of three biological independent experiments. FIG. 12E-12F, Cellular growth in response to PD0325901 at the indicated doses for 3 days in SK-MEL-30 (FIG. 12E) or SK-MEL-173 (FIG. 12F) control cells (siCtrl) and PDPK1-knockdown cells (siPDPK1s). Data are represented as dots of at least three biological independent experiments.
To test whether the synergistic effects of GSK2334470 was PDPK1-dependent, the present study generated PDPK1 knockout clones using high gene-editing efficiency clones of WM1361A and WM1366 cells. Depletion of PDPK1 by two different sgRNAs in both cell lines (FIGS. 3A-3B) attenuated cellular proliferation (FIGS. 3C-3D). […]

[3] = test system: WM1361A, WM1366, SK-MEL-30 or SK-MEL-173 cells; assay: 7-day cell growth monitored by IncuCyte; format: cell-based, human; details: 7-day treatment course
Procedure: (§1) FIG. 2A: NRAS mutant melanoma cell line WM1361A, WM1366, SK-MEL-30, SK-MEL-173, 1007 and 1014 were treated for 72 hours as indicated with GSK2334470 and trametinib and analyzed for cell density by IncuCyte. Synergy graphs were generated utilizing Combenefit Software with Loewe method. Data are represented as the mean from three biological independent experiments. FIG. 2B: WM1361A, WM1366, SK-MEL-30 or SK-MEL-173 cells were treated with GSK2334470 (PDPK1i) and trametinib (tram) alone or in combination (comb) at the indicated concentrations for 7 days. Cell growth was monitored by IncuCyte every 2 hours. Media were replaced twice with drugs during culture. Data are represented as the mean±SEM of three biological independent experiments. p values were calculated with an unpaired two-tailed t test. n.s., not significant.
FIG. 11A: WM1361A, WM1366, SK-MEL-30 and SK-MEL-173 cells were treated for 72 hours as indicated with GSK2334470 and PD0325901 and analyzed for cell density by IncuCyte. […] Cell growth was monitored by IncuCyte every 2 hours. Data are represented as the mean±SEM of three biological independent experiments. p values were calculated with an unpaired two-tailed t test. n.s., not significant.
For cell proliferation and drug response, cells were monitored by IncuCyte® (Essen Bioscience, Ann Arbor, MI) every 2 hours.

[4] = test system: human NRAS mutant melanoma cell lines; assay: 72 hours drug combination, cell density by IncuCyte, synergy by Combenefit with Loewe method; format: cell-based; details: WM1361A, WM1366, SK-MEL-30 and SK-MEL-173, 72 hours
Procedure: as §1
FIG. 10A-10B: Cas9 expressed clone WM1361A-iCas9 #1 (FIG. 10A), and WM1366-iCas9 #11 (FIG. 10B) cells were treated for 72 hours as indicated with GSK2334470 and trametinib and analyzed for cell density by IncuCyte. Synergy graphs were generated utilizing Combenefit Software with Loewe method. Data are represented as the mean from three biological independent experiments.
FIG. 11A: WM1361A, WM1366, SK-MEL-30 and SK-MEL-173 cells were treated for 72 hours as indicated with GSK2334470 and PD0325901 and analyzed for cell density by IncuCyte. Synergy graphs were generated utilizing Combenefit Software with Loewe method. Data are represented as the mean from three biological independent experiments. FIG. 11B: WM1361A, WM1366, SK-MEL-30 or SK-MEL-173 cells were treated with GSK2334470 (PDPK1i) and PD0325901 (PD901) alone or in combination (Comb) at the indicated concentrations for 7 days. Cell growth was monitored by IncuCyte every 2 hours. Data are represented as the mean±SEM of three biological independent experiments. p values were calculated with an unpaired two-tailed t test. n.s., not significant.
FIG. 16A: WM1361A and WM1366 cells were treated for 72 hours with indicated inhibitors and analyzed for cell density by IncuCyte. Synergy graphs were generated utilizing Combenefit Software with Loewe method. Data are represented as the mean from three biological independent experiments.
To further analyze synergistic effects, the growth response of a panel of several NRAS mutant cells to titrated PDPK1i (GSK2334470) and MEKi (trametinib) combinations was assessed.
Human WM1361A and WM1366 melanoma cell lines were cultured in MCDB153 (Sigma) with 2% FBS, 20% Leibowitz L-15 medium, and 5 μg/mL insulin (WM medium). Human SK-MEL-30 and SK-MEL-173 melanoma cell lines were cultured in RPMI-1640 with 10% FBS. […] All cells were cultured at 37° C. in a humidified atmosphere containing 5% CO2. […] Cell lines were STR analyzed, confirmed for NRAS/Nras mutation, and tested to be mycoplasma-free during experiments. For cell proliferation and drug response, cells were monitored by IncuCyte® (Essen Bioscience, Ann Arbor, MI) every 2 hours.

Compound	half-maximum inhibitory concentration upon PDPK1 knockdown [1]	decrease of the half-maximum inhibitory concentration by PDPK1 depletion [2]	cell proliferation, MEKi combined with PDPK1 depletion [2]	cell proliferation, MEKi combined with PDPK1i (GSK2334470) [3]	synergistic inhibition of PDPK1i (GSK2334470) with PD0325901 [4]
CC(=O)Nc1cccc(-n2c(=O)n(C3CC3)c(=O)c3c(Nc4ccc(I)cc4F)n(C)c(=O)c(C)c32)c1 [trametinib, N-(3-(3-cyclopropyl-5-((2-fluoro-4-iodophenyl)amino)-6,8-dimethyl-2,4,7-trioxo-3,4,6,7-tetrahydropyrido[4,3-d]pyrimidin-1(2H)-yl)phenyl)acetamide]	decreased	approximately 4 fold	effectively inhibited	profoundly inhibited	
O=C(NOC[C@H](O)CO)c1ccc(F)c(F)c1Nc1ccc(I)cc1F [PD0325901, (R)—N-(2,3-dihydroxypropoxy)-3,4-difluoro-2-((2-fluoro-4-iodophenyl)amino)benzamide]	decreased	approximately 4 fold	effectively inhibited	profoundly inhibited	broad synergistic effects

Reference: patent publication US20240382484A1, “COMPOSITION FOR TREATING, PREVENTING, OR AMELIORATING MELANOMA AND METHOD THEREOF” (Thomas Jefferson University, priority 2021, published 2024)
